The record followed here is patent publication US20140241990A1, “METHODS OF USING ADENOSINE A1 RECEPTOR ACTIVATION FOR TREATING DEPRESSION” (TUFTS UNIVERSITY, priority 2011, published 2014).

The subject of assay [1] is C57Bl/6J mice. Description: Forced swim test (FST). The assay is classed as in vivo, mouse. To be noted: for duration of reduced immobility in forced swim test after onset of administration: cohorts tested 12, 36, 84 and 108 hours after first treatment. As to the method: The forced swim test is typically performed in a quiet experimental room as described in previous reports (Porsolt, R. et al., Arch. Int. Pharmacodyn. Ther., 229:327-336, 1977). For a typical test, animals are placed, for example, into a plexiglass cylinder (25 cm height, 25 cm diameter) containing 20 cm height of water at 23-25 C for 10 min. The animals typically display very fast swimming initially, lasting 1-2 min, followed by increasing immobility. Immobile time is measured during the last 4 min of the total period for statistical analysis. The animals are videotaped and movements are digitized from above. Immobility can be automatically scored, for example, using Ethovision (Noldus Information Technology Inc., Leesburg, U.S.A.).
The forced swim test (FST) was performed in a quiet experimental room. Animals where placed into a Plexiglass cylinder (25 cm height, 25 cm diameter) containing 20 cm height of water at 23-25° C. for 10 min. […] Immobile time was measured during the last 4 min of the total period for statistical analysis. The animals were videotaped and movements were digitized from above. Immobility was automatically scored using Ethovision (Noldus Information Technology Inc., Leesburg, U.S.A.). Results from tracking analysis were analyzed using ANOVA to compare means.

In assay [2] the test system is mice. Description: Open field test (locomotor activity). The assay is classed as in vivo, mouse. To be noted: wildtype mice treated i.c.v. The procedure:
The open field test was performed in accordance with the […] resource phenotyping protocol (Brown, S. et al., Nat. Genet., 37:1155, 2005). Open field behavior of mice was videorecorded from above, and assessed using Ethovision. Results from tracking analysis were analyzed using ANOVA to compare means.

Assay [3] has as its system C57Bl/6J mice. Description: Tail suspension test (TST). It counts as in vivo, mouse. To be noted: CPT 4 mM i.c.v. As to the method:
Results from tracking analysis were analyzed using ANOVA to compare means.

The next assay addresses T1, A1R (Mus musculus, UniProt Q60612).
T1 construct: from tissue; host or cells: acute mouse hippocampal slices (C57Bl/6J background; wild type and dnSNARE mice)
T1 sequence (Q60612 1-326): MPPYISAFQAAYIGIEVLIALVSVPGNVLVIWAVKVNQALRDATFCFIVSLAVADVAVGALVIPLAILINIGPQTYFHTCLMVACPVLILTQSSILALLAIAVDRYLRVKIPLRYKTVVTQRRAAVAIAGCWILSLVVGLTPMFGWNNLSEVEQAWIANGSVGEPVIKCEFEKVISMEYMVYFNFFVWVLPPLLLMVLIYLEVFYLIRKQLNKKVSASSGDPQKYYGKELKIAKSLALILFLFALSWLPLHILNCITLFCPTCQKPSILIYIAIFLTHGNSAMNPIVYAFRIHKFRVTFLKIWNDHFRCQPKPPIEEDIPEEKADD
Description: fEPSP enhancement at Schaeffer collateral synapse of hippocampal area CA1 in acute slices (adenosine tone). The assay is classed as cell-based. To be noted: CPT 200 nM. As to the method:
Mice were briefly anaesthetized with isofluorane and then decapitated, and slices were prepared (Manzoni, O. et al., Science, 265:2098-101, 1994). The brain was rapidly extracted in cold cutting solution (124 mM NaCl, 26 mM NaHCO3, 1 mM NaHPO4, 10 mM Glucose, 1 mM sodium pyruvate, 0.6 mM ascorbate, 2.9 mM KCl, 1 mM CaCl2, 2 mM MgCl2) bubbled continuously with a 95% O2 5% CO2 gas mixture. Slices 310 μm thick were cut using a Leica VT 1000S Vibratome. Isolated hippocampal slices were transferred to a bath containing continuously oxygenated cutting solution and incubated at 30 C for a 1.5 hour recovery period. Extracellular recordings were conducted in artificial cerebrospinal fluid (aCSF, 124 mM NaCl, 26 mM NaHCO3, 1 mM NaHPO4, 10 mM Glucose, 1 mM sodium pyruvate, 2.9 mM KCl, 2 mM CaCl2, 1 mM MgCl2) continuously superfused at 1.2 mL/minute and maintained at 32.8 C. Extracellular stimulation were delivered using a 125 μm concentric Pt—Ir electrode in unipolar mode with a pulse width of 0.1 ms.
A relative measure of the extracellular adenosine level can be obtained by determining the proportional enhancement of synaptic transmission in response to the application of the A1R antagonist 8-cyclopentyltheophylline (CPT; 200 nM) an approach that has been validated using electrochemical biosensors (Schmitt, L. et al., J. Neurosci., 32:4417-25, 2012).
The physiological mechanisms underlying the effects of sleep deprivation was investigated by asking whether sleep deprivation leads to an elevation of extracellular adenosine. A relative measure of the extracellular adenosine level can be obtained by determining the proportional enhancement of synaptic transmission in response to the application of the A1R antagonist 8-cyclopentyltheophylline (CPT; 200 nM). Independent measurements of extracellular adenosine using electrochemical biosensors have validated this approach. Field excitatory postsynaptic potentials (fEPSP) were measured at the Schaeffer collateral synapse of hippocampal area CA1 before and following application of CPT.

The test system of assay [4] is mice. Description: Sucrose consumption test (anhedonia). The assay is classed as in vivo, mouse. As to conditions: i.c.v. CCPA, three bolus injections at ZT=0, 3 and 6; vehicle baseline 30.55±3.60 g/kg; p=0.008. As to the method: Sucrose consumption experiments can be conducted known to one of skill in the art. For a typical test, mice are gradually acclimatized to increasing durations of water deprivation (0, 4, 8, 12, and 16 hours) and i.c.v. infusion of saline over the course of five days to minimize the stressfulness of the testing. On the sixth day, instead of receiving water at the end of the deprivation period, mice are given a 1% v/w solution of sucrose. This is repeated for three days (days 6-9) to establish baseline sucrose consumption levels. During the deprivation period preceding day 10, mice are given i.c.v. infusions of the identified test compound, followed by the presentation of sucrose as during baseline consumption testing. The average baseline (saline infusion) sucrose consumption is then compared to the average sucrose consumption following test compound infusion. Results are analyzed using a Student's t-test to compare means.
Sucrose consumption was conducted (Papp, M. et al., Psychopharmacology (Berl.), 104:255-9, 1991). After the acclimatization and habituation period mice were given access to sucrose for three days (days 6-9) to establish baseline sucrose consumption levels. Mice were then given i.c.v. infusions of CCPA administered as a series of three bolus injections at ZT=0, 3 and 6, followed by the presentation of sucrose (day 10). […]

In assay [5] the test system is mice. Description: EEG/EMG recording, vigilance state scoring and power spectra. The assay is classed as in vivo, mouse. An excerpt:
Mice were implanted with EEG and EMG electrodes under ketamine/xylazine anesthesia. After 5-7 days of post-operative recovery, lightweight recording cables were connected to the head implants and mice were placed in cylindrical polypropylene containers containing nest material, water and food ad libitum. Mice were acclimated to the sleep chamber for 5-7 days (12:12 light-dark (LD) cycle; lights on at 8 AM). EEGs and EMGs were then collected on a Pinnacle Technologies system and digitized at 1000 Hz. Following acclimation, baseline 24 h recordings were made.
NonREM sleep (“NREM” sleep), REM sleep and wake were determined by an experimenter blind to experimental condition. On the baseline day, the amount of each state (expressed as a percentage of total recording time) and the duration of individual sleep and wake episodes were computed. Transitions between NREM sleep and REM sleep were also measured during the light phase. To investigate sleep the beneficial effects of sleep deprivation mice, mice were sleep deprived (SD) from 8 a.m. to 8 p.m. at the beginning of the major sleep period (light phase) using a Pinnacle sleep deprivation chamber. All EEG data were analyzed by normalizing each data point to the average power of the EEG from 0.5 to 40 Hz (FIG. 4), and by normalizing each data point (+12 hr, +36 hr, +84 hr, +108 hr) to the corresponding vehicle data points (FIG. 8).
To investigate whether A1R activation alone is capable of altering the sleep architecture and mimicking the effects of sleep deprivation, the adenosine receptor agonist 2-chloro-N(6)-cyclopentyladenosine (CCPA; […]) was administered via i.c.v. cannulae. Following recovery and one week of habituation to the headstage, EEG activity was recorded from mice with i.c.v. saline vehicle infusion for two days to establish baseline EEG activity patterns. The EEG changes following injection of the A1R agonist CCPA were monitored. […] The normalized power from 0.5 to 4.0 Hz was also analyzed, comparing saline baseline to CCPA infusion (FIG. 4D).
Adenosine agonists cause a sustained enhancement of delta power during wakefulness. As a final step in testing the antidepressive actions of adenosine activation of A1Rs was determined to be sufficient to mimic the effects of sleep deprivation on depressive-like behaviors. […] The adenosine receptor agonist 2-chloro-N(6)-cyclopentyladenosine (CCPA; 500 nM) was delivered i.c.v. while performing EEG/EMG recordings.

The test system of assay [6] is mice. Description: Rotorod test. It counts as in vivo, mouse. As to conditions: CCPA versus vehicle. An excerpt: The rotorod used a rotating cylinder that was 4 cm in diameter, fixed 35 cm above the ground and enclosed by transparent Plexiglas. The rotorod cylinder was covered in textured rubber coating, which facilitates traction. A small electric motor provided power to turn the rotorod via a rubber belt. The rotorod was set to rotate once every 5 s.
For orientation: Falling from the rotarod earlier than controls is read as motor impairment.

Where [7] appears, read: CCPA 500 nm i.c.v., percentage of recording time.

The structures appear in SMILES notation. “Also recorded” adds a separate entry of the source.

In the case of `Cn1c(=O)c2[nH]c(C3CCCC3)nc2n(C)c1=O` [CPT, 8-cyclopentyltheophylline], in the assay on C57Bl/6J mice [1] (CPT 4 mM i.c.v., no sleep deprivation), the “basal immobility, forced swim test” value is 176.43 ± 21.77 s. In addition, the “immobility after sleep deprivation, forced swim test” value in the assay on C57Bl/6J mice [1] (CPT 4 mM i.c.v., sleep deprivation) was determined as 167.70 ± 18.89 s. Also, the “locomotor activity / total distance traveled in open field” value with mice [2] is listed as “do not differ”. Further, the “basal immobility, tail suspension test” value in the assay on C57Bl/6J mice [3] (no sleep deprivation) turned out to be 187.60 ± 11.46 s. For the same compound, the “immobility after sleep deprivation, tail suspension test” value with C57Bl/6J mice [3] (sleep deprivation) came out at 204.00 ± 3.58 s. The “increase in fEPSP (adenosine tone)” value on A1R (WT undisturbed mice, ZT=0) is listed as 481.70±85.04%. Besides, the “proportional enhancement of fEPSP (adenosine tone)” value at A1R (WT, ZT=12 (end of light phase)) is given as 128.15±28.91%. Moreover, the “adenosine tone (fEPSP enhancement)” value at A1R (after 72 h of sleep deprivation, ZT=0) worked out at 104.62±18.31%; on A1R (dnSNARE, ZT=0), 61.98±16.80%; at A1R (dnSNARE, ZT=12) it was 27.91±5.10%; on A1R (transient total sleep deprivation ZT 0 to ZT 12), 367.61±24.95%.

For `CN(C)CCCN1c2ccccc2CCc2ccccc21` [imipramine], in the assay on C57Bl/6J mice [1] (14 days of treatment), the “immobility in behavioral despair tasks” value is reported as “reduces immobility”. In addition, the “time spent immobile, forced swim test” value in the assay on C57Bl/6J mice [1] (wildtype littermates, imipramine 20 mg/kg, chronic 14 days) turned out to be 73.00 ± 9.53 s.

With `OCC1OC(n2cnc3c(NC4CCCC4)nc(Cl)nc32)C(O)C1O` (centres unmarked) [CCPA, 2-(2-chloro-6-(cyclopentylamino)-9H-purin-9-yl)-5-(hydroxymethyl)tetrahydrofuran-3,4-diol], the sucrose consumption in the assay on mice [4] came out at 51.45 ± 6.35 g/kg. Also, in the assay with mice [5] (12 h (ZT 12) after CCPA), the “percent wake at 12 h after administration” value was “significantly greater percentage of time awake; also recorded: increased percent wake”. Further, in the assay on mice [5] (36 h following CCPA), the “increased percent wake at 36 h after administration” value is reported as “no longer present”. Also, in the assay on mice [5] (CCPA 500 nm i.c.v.), the “EEG power spectra compared to baseline saline” value is listed as “dramatic increase in the power spectra”. Also, in the assay with mice [5] (setting [7]), the “duration of REM sleep” value worked out at 18.13±1.30%, the “duration of non-REM sleep” value amounted to 48.75±1.85% and the duration of wake is listed as 31.38±1.93%. In addition, the “delta power (0.5-4 Hz) during wakefulness after mice awoke” value in the assay on mice [5] (CCPA i.c.v. ZT=0, 3 and 6, p<0.001) is given as “prominent increase in delta power”. Moreover, the “percentage of time awake during administration” value in the assay on mice [5] (CCPA i.c.v. infusion, 500 nM) was “transient decrease; also recorded: decreased”. For the same compound, the “acute effect on delta power” value in the assay on mice [5] (acute, during CCPA action) was “reduce delta power”. Moreover, in the assay on mice [5] (reversed by ZT=11, last administration at ZT=6), the “time after last administration by which effects on sleep had reversed” value is ≤ 5 h. Also, the “time asleep ZT 1 through 10 compared to vehicle” value in the assay on mice [5] (three consecutive CCPA infusions (ZT=0, 3, 6), 500 nM i.c.v., p<0.002) is “significantly greater time”. The “beneficial effects in forced swim test 3 and 5 days after infusion” value with C57Bl/6J mice [1] (3 and 5 days after infusion) is “no longer observed”. For the same compound, the “effect on immobile time, forced swim test” value in the assay on C57Bl/6J mice [1] (CCPA i.c.v. (ZT=0, 3 and 6), tested at ZT=12) is on record as “decreased immobile time; also recorded: reduction in immobile time; also recorded: significantly reduces immobility”. In the assay with C57Bl/6J mice [1], the “duration of reduced immobility in forced swim test after onset of administration” value is 36 h. Moreover, in the assay with C57Bl/6J mice [1] (listed as COPA), the “duration of reduced immobility in forced swim test after onset of administration” value is on record as “up to 36 hours”. In the assay with C57Bl/6J mice [1] (three i.c.v. injections spaced evenly across a 12 hour period, cohorts at 24 hours, +1, +3, +5 days), the “duration of beneficial effects in forced swim test” value turned out to be 24 h. The “latency to fall / locomotor activity in rotorod test” value in the assay with mice [6] is given as “without accompanying changes in locomotor activity; also recorded: do not differ”. Further, the “locomotor activity / total distance traveled in open field” value with mice [2] is given as “without accompanying changes in locomotor activity; also recorded: do not differ”.
